Laboratory results: patent publication US5559141A, “Selective aromatase inhibiting 4(5)-imidazoles” (Orion-yhtyma Oy, priority 1991, dated 1996)

How the values were obtained:
desmolase = assay: inhibition of cholesterol side chain cleavage (SCC) activity (desmolase); assay type: biochemical; conditions: mitochondrial fraction from human placenta or bovine adrenals, 37° C., 30 min; read-out: DESMOLASE IC-50
Description: Incubations were carried out in 1,5 ml Eppendorf plastic tubes, and an Eppendorf shaker, centrifuge and incubator were used as a unit. […] Controls contained all the above substances but the enzyme preparation was inactivated prior to the incubation by the addition of 900 μof methanol. The mitochondrial fraction (1 mg protein) from human placenta or bovine adrenals was used as a source of enzyme. After 30 min incubation at 37° C., the reaction was terminated by the addition of 900 μl of methanol; 1500 dpm of marker ^14 C-4-pregnenolone was added to each incubate and the tubes were vigorously shaken. […] The column was washed with one ml of 75% methanol and then with 3 ml of 80% methanol. The 80% methanol eluate was run into the counting vial and 10 ml of scintillation liquid was added. Radioactivity was counted using a double-label program on a liquid scintillation counter (LKB RackBeta). Typical activities for placental and bovine adrenal enzyme preparation were 0,5-3 and 50-100 pmol pregnenolone formed/mg protein/min,respectively.
In inhibition experiments, the substance (final concentration range from 1 to 1000 μM) was added into incubation mixture in a volume of 10-20 μl, usually as methanol or ethanol solution. The same volume of the solute was added into control incubation vial.

[1] = acute toxicity, LD50, oral, mice; conditions: mouse, in vivo, young adult female NMRI-Stmin mice
Description: Acute toxicity, LD50, was determined by using young adult female mice of NMRI-Stmin. The administration of the test compounds was oral.

human aromatase = molecular target: T1, human aromatase (Homo sapiens, UniProt P11511); assay: in vitro inhibition of aromatase (human placental microsomes, 3H2O release); assay type: biochemical; conditions: 37° C., 40 min, read-out: AROMATASE IC-50 (converted)
T1 construct: The enzyme was prepared from human placenta, which is rich of the enzyme; from tissue; host or cells: human placenta, microsomal fraction (100000×g precipitate), not further purified
T1 sequence (P11511 1-503): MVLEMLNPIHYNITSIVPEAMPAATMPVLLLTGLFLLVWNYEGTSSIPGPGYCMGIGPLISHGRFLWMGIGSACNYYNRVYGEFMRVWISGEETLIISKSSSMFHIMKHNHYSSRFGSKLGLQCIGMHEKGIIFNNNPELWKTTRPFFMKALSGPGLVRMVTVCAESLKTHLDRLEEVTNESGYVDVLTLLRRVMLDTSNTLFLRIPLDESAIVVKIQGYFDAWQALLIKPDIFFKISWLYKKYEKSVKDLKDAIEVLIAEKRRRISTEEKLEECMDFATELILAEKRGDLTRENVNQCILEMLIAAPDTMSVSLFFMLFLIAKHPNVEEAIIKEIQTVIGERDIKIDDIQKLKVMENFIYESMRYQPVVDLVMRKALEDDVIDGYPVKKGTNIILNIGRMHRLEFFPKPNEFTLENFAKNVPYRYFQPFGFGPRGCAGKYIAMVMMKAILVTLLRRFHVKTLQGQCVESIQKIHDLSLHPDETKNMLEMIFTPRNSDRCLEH
Description: Human aromatase enzyme was used. The enzyme was prepared from human placenta, which is rich of the enzyme. Microsomal fraction (100000×g precipitate) was prepared by centrifugation. The enzyme preparation was used without further purification. […] The incubation was camed out at 37° C. for 40 min. Aromatization of 1,2[^3 H]-androstene-3,17-dione results in the production of ^3 H2 O. The tritiated water and the tritiated substrate are easily separated by a Sep-Pak™ minicolumn, which absorbs the steroid but allows free water elution. Radioactivity was counted by a liquid scintillation counter. Aromatase inhibition was evaluated by comparing the ^3 H2 O-radioactivity of inhibitor treated samples to controls containing no inhibitor. IC-50 values were calculated as concentrations which inhibited the enzyme activity 50%.

| IC50 (human aromatase) [µM] | Compound | IC50 (desmolase) [µM] | LD50 [1] [mg/kg] |
| --- | --- | --- | --- |
| – | N#Cc1ccc(C(=CCCc2ccc(F)cc2)c2c[nH]cn2)cc1 (single isomer, unassigned; isomer a) [Compound 4b, 4-[1-(4-cyanophenyl)-4-(4-fluorophenyl)-1-butenyl]-1H-imidazole, isomer a] | 33 | – |
| – | N#Cc1ccc(C(=CCc2ccc(F)cc2)c2c[nH]cn2)cc1 (single isomer, unassigned; isomer a) [Compound 6b, 4-[1-(4-cyanophenyl)-3-(4-fluorophenyl)-1-propenyl]-1H-imidazole, isomer a] | 36 | > 400 |
| – | N#Cc1ccc(C(=CCCc2ccc(F)cc2)c2c[nH]cn2)cc1 (single isomer, unassigned; isomer b) [Compound 5b, 4-[1-(4-cyanophenyl)-4-(4-fluorophenyl)-1-butenyl]-1H-imidazole, isomer b] | > 1000 | – |
| – | N#Cc1ccc(C(CCc2c[nH]cn2)c2ccccc2)cc1 (stereo not shown) [Compound 1a, 4-[3-(4-cyanophenyl)-3-phenylpropyl]-1H-imidazole] | 14 | – |
| – | N#Cc1ccc(C(CCCc2ccccc2)c2c[nH]cn2)cc1 (stereo not shown) [Compound 1b, 4-[1-(4-cyanophenyl)-4-phenylbutyl]-1H-imidazole] | 12 | – |
| – | N#Cc1ccc(C(CCc2c[nH]cn2)c2ccc(C#N)cc2)cc1 [Compound 2a, 4-[3,3-bis(4-cyanophenyl)propyl]-1H-imidazole] | 36 | – |
| – | N#Cc1ccc(C(CCCc2ccc(F)cc2)c2c[nH]cn2)cc1 (stereo not shown) [Compound 2b, 4-[1-(4-cyanophenyl)-4-(4-fluorophenyl)butyl]-1H-imidazole] | 20 | – |
| – | N#Cc1ccc(C(CCc2c[nH]cn2)c2ccc(F)cc2)cc1 (stereo not shown) [Compound 3a, 4-[3-(4-cyanophenyl)-3-(4-fluorophenyl)propyl]-1H-imidazole] | 43 | 210 |
| – | N#Cc1ccc(C(=CCCc2ccc(F)cc2)c2c[nH]cn2)cc1 [Compound 3b, 4-[1-(4-cyanophenyl)-4-(4-fluorophenyl)-1-butenyl)-1H-imidazole] | 26 | – |
| 0.65 | N#Cc1ccc(C(=CCc2c[nH]cn2)c2ccc(F)cc2)cc1 [Compound 4a, 4-[3-(4-cyanophenyl)-3-(4-fluorophenyl)-2-propenyl]-1H-imidazole] | 62 | – |
| 3.2 | N#Cc1ccc(C(=CCc2cncn2Cc2ccccc2)c2ccc(C#N)cc2)cc1 [Compound 5a, 1-benzyl-5-[3,3-bis(4-cyanophenyl)-2-propenyl]-1H-imidazole] | – | – |
| – | N#Cc1ccc(C(CCCc2c[nH]cn2)c2ccc(C#N)cc2)cc1 [Compound 6a, 4-[4,4-bis(4-cyanophenyl)butyl]-1H-imidazole] | 47 | – |
| 5 | N#Cc1ccc(C(CCCc2cncn2Cc2ccccc2)c2ccc(C#N)cc2)cc1 [Compound 7a, 1-benzyl-5-[4,4-bis(4-cyanophenyl)butyl]-1H-imidazole] | 22 | – |
| 0.97 | N#Cc1ccc(C(=CCc2c[nH]cn2)c2ccc(C#N)cc2)cc1 [Compound 8a, 4-[3,3-bis(4-cyanophenyl)-2-propenyl]-1H-imidazole] | 33 | – |
| 1 | N#Cc1ccc(CC=C(c2ccc(F)cc2)c2c[nH]cn2)cc1 [Compound 8b, 4-[3-(4-cyanophenyl)-1-(4-fluorophenyl)-1-propenyl]-1H-imidazole] | – | – |
| – | N#Cc1ccc(C(CCc2c[nH]cn2)c2ccc(C(F)(F)F)cc2)cc1 (stereo not shown) [Compound 9a, 4-[3-(4-cyanophenyl)-3-(4-trifluoromethylphenyl)propyl]-1H-imidazole] | 64 | – |
| – | COc1ccc(C(CCc2c[nH]cn2)c2ccc(C#N)cc2)cc1 (stereo not shown) [Compound 10a, 4-[3-(4-cyanophenyl)-3-(4-methoxyphenyl)propyl]-1H-imidazole] | 33 | – |
